Data from US12022832B2, “Compounds and methods for treating nematode infections” (The Governing Council of The University of Toronto, priority 2018, dated 2024).
Like-named read-outs stand apart in the source and are kept apart here.

How the values were obtained:
[1] = system: M. incognita (J2); experiment: M. incognita J2 viability in vitro; format: in vivo, Meloidogyne incognita; details: assay done using 45 uM; for M. incognita (J2 viability in vitro): concentration giving >20% and <80% death: 48 or 72 hours, other compounds
[2] = system: C. elegans (L1); experiment: C. elegans L1 viability, three day protocol; format: in vivo, Caenorhabditis elegans; details: for EC (80% dead): Caenorhabditis elegans, read-out: C. elegans (L1 viability): lowest concentration tested in which at least 80% of animals were dead; for C. elegans (L1 viability): lowest concentration tested in which greater than 20% of animals were dead: compounds 55-11, 55-12-21, 55-12-23
[3] = system: M. incognita; experiment: M. incognita Quick Soil Test (tomato); format: in vivo, Meloidogyne incognita; details: 45 uM, ~2000 J2 per tomato plant, worms in soil 4 days; for M. incognita (Quick Soil Test): concentration giving >80% killing: J2s counted in root tissue; for M. incognita (Quick Soil Test): concentration giving 10-20% killing: other compounds
[4] = system: C. elegans; experiment: C. elegans acute motor (rubber-band, convulsion/paralysis) phenotype on solid substrate; format: in vivo, Caenorhabditis elegans; details: for C. elegans acute motor phene: concentration at which 10-50% of the animals exhibit convulsion/paralysis phenotypes / C. elegans acute motor phene: lowest concentration at which 50% of the young adult animals exhibit convulsion/paralysis phenotypes: solid substrate; for C. elegans acute motor phene: concentration at which 10-50% of the animals exhibit convulsion/paralysis phenotypes: 80 minutes, compounds 55-12-6, 55-12-9, 55-12-12, 55-12-21, 55-12-23; for C. elegans acute motor phene: lowest concentration at which 50% of the young adult animals exhibit convulsion/paralysis phenotypes: 80 minutes of incubation
Description: Worms are scored for the indicated phenotype (see legend); convulsions along the circumferential axis is characterized as the ‘shaker’ phenotype in C. elegans; convulsions along the anterior-posterior axis is characterized as the ‘rubber-band’ phenotype in C. elegans. 18 young-adult animals were scored at each time-point for rubber-band (animals spontaneously contract or do so upon touch on the nose with a platinum wire), hyperactive movement (observing rapid lateral nose movement) and shaker (spontaneous circumferential rotations). […] Data are showing the mean number of animals with each phenotype.
If a penetrant phenotype is observed, a dose-response analysis is performed; the EC50 is shown.
Each compound was added to the MYOB substrate before pouring to achieve desired concentration after diffusion through the media. The final concentration of dimethyl sulfoxide (DMSO) in each of the wells was […]. Young adult or fourth-staged larval worms are transferred into each well using a platinum wire pick.
˜25 young adult animals of each indicated strain were picked using a platinum wire onto 2% MYOB agar containing the indicated drug condition with 1% DMSO. […] 18 animals were scored per trial; data are the mean response of 2-3 replicates showing the standard error of the mean.

[5] = system: M. incognita (eggs); experiment: M. incognita egg-hatch assay; format: in vivo, Meloidogyne incognita; details: 45 uM of each compound, ~50 eggs per well; effect threshold not stated
[6] = system: P. pacificus (L1); experiment: P. pacificus L1 viability; format: in vivo, Pristionchus pacificus; details: 72 hours; for P. pacificus (L1 viability): lowest concentration tested in which at least 80% of animals were dead: relative to no-drug controls
[7] = system: P. hermaphrodita (L1); experiment: P. hermaphrodita L1 viability; format: in vivo, Phasmarhabditis hermaphrodita; details: 72 hours; for P. hermaphrodita (L1 viability): lowest concentration tested in which at least 80% of animals were dead: relative to no-drug controls; for P. hermaphrodita (L1 viability): lowest concentration tested in which greater than 20% of animals were dead: compounds 55-6, 55-12-20, 55-12-22
[8] = system: C. elegans (dauer); experiment: C. elegans dauer viability; format: in vivo, Caenorhabditis elegans; details: relative to no-drug controls; for C. elegans (dauer viability): lowest concentration tested in which at least 80% of animals were dead: 72 hours
[9] = system: C. elegans (adult); experiment: C. elegans adult viability; format: in vivo, Caenorhabditis elegans; details: 72 hours, relative to no-drug controls
[10] = 72 hours, relative to no-drug controls

Row | Compound | M. incognita (J2 viability in vitro): concentration giving >20% and <80% death [1] | EC (80% dead) [2, 10] | M. incognita (Egg Hatch Rate) [5] | C. elegans (dauer viability): lowest concentration tested in which at least 80% of animals were dead [8] | C. elegans (adult viability): lowest concentration tested in which at least 80% of animals were dead [9] | also measured
1 | CCCCc1ccc(-c2ccc(OC)cc2)nc1 [IIIw (wact-55-12-28), 5-butyl-2-(4-methoxyphenyl)pyridine] | 45 µM | 15 µM | – | – | – | M. incognita (Quick Soil Test): concentration giving >80% killing [3]: 45 µM
2 | CCCCCCCCCCCCCC(=O)O[C@@H]1[C@@H](C)[C@@]2(O)[C@@H](C=C(CO)C[C@]3(O)C(=O)C(C)=C[C@@H]23)[C@@H]2C(C)(C)[C@]12OC(C)=O [PMA, phorbol myristate acetate, reference compound] | – | – | – | – | – | induction of rubber-band (RB) convulsions ([4]; in vivo): fail to induced a RB phenotype
3 | CCCCc1ccc(-c2ccc(OC(F)F)cc2)nc1 [IIIuu (wact-55-12-27), 5-butyl-2-(4-(difluoromethoxy)phenyl)pyridine] | np | 15 µM | np | – | – | –
4 | CCCc1ccc(-c2ccc(SC(F)F)cc2)nc1 [IIIy (wact-55-12-5), 2-(4-((difluoromethyl)thio)phenyl)-5-propylpyridine] | np | 30 µM | – | – | – | –
5 | CCCc1ccnc(-c2ccc(OC(F)F)cc2)c1 [IIIoo (wact-55-12-21), 2-(4-(difluoromethoxy)phenyl)-4-propylpyridine] | np | – | np | np | np | C. elegans acute motor phene: concentration at which 10-50% of the animals exhibit convulsion/paralysis phenotypes [4]: 60 μM; P. pacificus (L1 viability): lowest concentration tested in which at least 80% of animals were dead [6]: 30 µM; P. hermaphrodita (L1 viability): lowest concentration tested in which at least 80% of animals were dead [7]: 30 µM; C. elegans (L1 viability): lowest concentration tested in which greater than 20% of animals were dead [2, 10]: 60 µM; M. incognita (Quick Soil Test): concentration giving >80% killing [3]: 45 µM
6 | CCCc1ccc(-c2ccc(OC(F)F)cc2)cn1 [IIIaa (wact-55-12-7), 5-(4-(difluoromethoxy)phenyl)-2-propylpyridine] | – | 30 µM | – | – | – | M. incognita (J2 viability in vitro): concentration giving >80% death ([1]; 48 or 72 hours of incubation): 45 µM
7 | CCCc1cccc(-c2ccc(OC(F)F)cc2)n1 [IIInn (wact-55-12-20), 2-(4-(difluoromethoxy)phenyl)-6-propylpyridine] | – | – | – | np | np | C. elegans acute motor phene: lowest concentration at which 50% of the young adult animals exhibit convulsion/paralysis phenotypes [4]: np; P. pacificus (L1 viability): lowest concentration tested in which greater than 20% of animals were dead ([6]; compound 55-12-20): 30 µM; P. hermaphrodita (L1 viability): lowest concentration tested in which greater than 20% of animals were dead [7]: 60 µM; C. elegans (L1 viability): lowest concentration tested in which at least 80% of animals were dead [2, 10]: np
8 | CCc1ccc(-c2ccc(OC(F)F)cc2)nc1 [IIIdd (wact-55-12-10), 2-(4-(difluoromethoxy)phenyl)-5-ethylpyridine] | – | 30 µM | – | 30 µM | np | P. pacificus (L1 viability): lowest concentration tested in which at least 80% of animals were dead [6]: 15 µM; P. hermaphrodita (L1 viability): lowest concentration tested in which at least 80% of animals were dead [7]: 15 µM
9 | CC#Cc1ccc(-c2ccc(OC(F)F)cc2)nc1 [IIIhh (wact-55-12-14), 2-(4-(difluoromethoxy)phenyl)-5-(prop-1-yn-1-yl)pyridine] | np | 7.5 µM | – | – | – | –
10 | CCCc1ccc(-c2ccc(OC(F)F)nc2)cc1 [IIIcc (wact-55-12-9), 2-(difluoromethoxy)-5-(4-propylphenyl)pyridine] | np | – | np | – | – | C. elegans acute motor phene: concentration at which 10-50% of the animals exhibit convulsion/paralysis phenotypes [4]: 60 μM; EC (80% dead) ([2]; 72 h): 60 µM
11 | CCCc1ccc(-c2ccc(OC(F)F)cn2)cc1 [IIIbb (wact-55-12-8), 5-(difluoromethoxy)-2-(4-propylphenyl)pyridine] | np | – | – | – | – | EC (80% dead) ([2]; 72 h): 60 µM
12 | CCCc1ccc(-c2ccc(OC(F)F)cc2)cc1 [IIIz (wact-55-12-6), 4-(difluoromethoxy)-4′-propyl-1,1′-biphenyl] | np | 30 µM | np | – | np | C. elegans acute motor phene: concentration at which 10-50% of the animals exhibit convulsion/paralysis phenotypes [4]: 60 μM; P. hermaphrodita (L1 viability): lowest concentration tested in which at least 80% of animals were dead [7]: 7.5 µM; C. elegans (dauer viability): concentration where 10-20% death is exhibited ([8]; compounds 55-2, 55-8, 55-9, 55-12-6): 60 μM; M. incognita (Quick Soil Test): concentration giving 10-20% killing [3]: 45 uM
13 | CC(C)Cc1ccc(-c2ccc(OC(F)F)cc2)nc1 [IIItt (wact-55-12-26), 2-(4-(difluoromethoxy)phenyl)-5-isobutylpyridine] | np | 30 µM | – | – | – | M. incognita (Hatching Mobility) [5]: np; M. incognita (Quick Soil Test): concentration giving 10-20% killing [3]: 45 uM
14 | CCCc1ccc(-c2cccc(OC(F)F)c2)nc1 [IIIqq (wact-55-12-23), 2-(3-(difluoromethoxy)phenyl)-5-propylpyridine] | np | – | np | np | np | C. elegans acute motor phene: concentration at which 10-50% of the animals exhibit convulsion/paralysis phenotypes [4]: 60 μM; P. pacificus (L1 viability): lowest concentration tested in which at least 80% of animals were dead [6]: 30 µM; M. incognita (Hatching Mobility) [5]: np; P. hermaphrodita (L1 viability): lowest concentration tested in which at least 80% of animals were dead [7]: 15 µM; C. elegans (L1 viability): lowest concentration tested in which greater than 20% of animals were dead [2, 10]: 60 µM; M. incognita (Quick Soil Test): concentration giving 10-20% killing [3]: 45 uM
15 | Cc1ccc(-c2ccc(OC(F)F)cc2)nc1 [IIIee (wact-55-12-11), 2-(4-(difluoromethoxy)phenyl)-5-methylpyridine] | np | 60 µM | – | – | – | –
16 | CCCc1cccnc1-c1ccc(OC(F)F)cc1 [IIIpp (wact-55-12-22), 2-(4-(difluoromethoxy)phenyl)-3-propylpyridine] | – | – | – | np | np | C. elegans acute motor phene: lowest concentration at which 50% of the young adult animals exhibit convulsion/paralysis phenotypes [4]: np; P. pacificus (L1 viability): lowest concentration tested in which at least 80% of animals were dead [6]: np; P. hermaphrodita (L1 viability): lowest concentration tested in which greater than 20% of animals were dead [7]: 60 µM; C. elegans (L1 viability): lowest concentration tested in which at least 80% of animals were dead [2, 10]: np
17 | CCCc1cnc(-c2ccc(OC(F)F)cc2)nc1 [IIIss (wact-55-12-25), 2-(4-(difluoromethoxy)phenyl)-5-propylpyrimidine] | np | – | – | – | – | –
18 | NCc1ccc(-c2ccc(OC(F)F)cc2)nc1 [IIIkk (wact-55-12-17), (6-(4-(difluoromethoxy)phenyl)pyridin-3-yl)methanamine] | np | – | np | – | – | C. elegans acute motor phene: lowest concentration at which 50% of the young adult animals exhibit convulsion/paralysis phenotypes [4]: np; M. incognita (Hatching Mobility) [5]: np; C. elegans (L1 viability): lowest concentration tested in which at least 80% of animals were dead [2, 10]: np
19 | FC(F)Oc1ccc(-c2ccccn2)cc1 [IIIff (wact-55-12-12), 2-(4-(difluoromethoxy)phenyl)pyridine] | 45 µM | – | – | np | np | C. elegans acute motor phene: concentration at which 10-50% of the animals exhibit convulsion/paralysis phenotypes [4]: 60 μM; P. pacificus (L1 viability): lowest concentration tested in which at least 80% of animals were dead [6]: 60 µM; P. hermaphrodita (L1 viability): lowest concentration tested in which at least 80% of animals were dead [7]: 60 µM; C. elegans (L1 viability): lowest concentration tested in which at least 80% of animals were dead [2, 10]: np; M. incognita (Quick Soil Test): concentration giving >80% killing [3]: 45 µM
